Usually Kd stands for the constant that tells how readily two partners part at equilibrium.

These results are taken from publication PMC4459817, “Vasculotide reduces endothelial permeability and tumor cell extravasation in the absence of binding to or agonistic activation of Tie2” (EMBO Molecular Medicine, 2015).

Assay [1] has as its system endothelial cells. The conditions noted are these: cells stimulated with sepsis-related mediators incl. thrombin; ref David et al, 2011; cited from earlier work. The text has this: Thrombin is also a metastasis-associated factor that can promote endothelial adhesion and diapedesis of TCs (Nierodzik & Karpatkin, [2006]).
Assay [2] concerns SN12luc lung metastases in YFP-SCID mice. Kind of assay: experimental SN12luc lung metastasis model (IV). Format: in vivo, human SN12luc cells in YFP-SCID mice. The conditions noted are these: VT 250 ng/2 days or 400 ng/2 days; Fig3E–G; 50DPI imaging. The text has this: (§1) Figure 3 Vasculotide has no effect on experimental liver metastases from a colon cancer cell line (HT29^luc), nor on experimental lung metastases from a renal cancer cell line (SN12^luc) • A–D An experiment where HT29^luc tumor cells were implanted intravenously into YFP-SCID mice. (A) Kaplan–Meier survival analysis. (B) Quantification of total metastatic burden in the liver and lymphatics, at 35 days post-implantation (DPI), from whole-body bioluminescent imaging (C). (D) Photograph of typical liver metastases. • E–G An experiment where SN12^luc tumor cells were implanted intravenously into YFP-SCID mice. (E) Kaplan–Meier survival analysis. (F) Quantification of total metastatic burden at 50DPI, mostly within the lungs, from whole-body bioluminescent imaging (G). […]
(§2) For in vivo BI: Mice were injected intraperitoneally with 150mg/kg luciferin (Promega) 10 minutes prior to and anesthetized with isofluorane just before luminescent pseudocolor imaging (uniform settings: CCD camera locked at -105 °C, exposure=60s, f/1, subject size=1.5cm, bin=8, FOV=23.2cm, full image correction) using the IVIS 200 Imaging System (Caliper/PerkinElmer). Using the Living Image software (v2.50.1, Xenogen), weekly images were analyzed under uniform color range on grayscale photographic overlay. […]

In assay [3] the test system is HT29luc metastases in YFP-SCID mice. Briefly: experimental HT29luc liver/lymphatic metastasis model (IV). The conditions noted are these: VT vs PBS; Fig3A–D; 35DPI imaging. The format is in vivo, human HT29luc cells in YFP-SCID mice.
Description: as §1, §2

The target in assay [4] is T1, mouse Tie2-Fc (Fc-conjugated extracellular domain of Tie2) (mouse, UniProt Q02858 23-746).
T1 chain: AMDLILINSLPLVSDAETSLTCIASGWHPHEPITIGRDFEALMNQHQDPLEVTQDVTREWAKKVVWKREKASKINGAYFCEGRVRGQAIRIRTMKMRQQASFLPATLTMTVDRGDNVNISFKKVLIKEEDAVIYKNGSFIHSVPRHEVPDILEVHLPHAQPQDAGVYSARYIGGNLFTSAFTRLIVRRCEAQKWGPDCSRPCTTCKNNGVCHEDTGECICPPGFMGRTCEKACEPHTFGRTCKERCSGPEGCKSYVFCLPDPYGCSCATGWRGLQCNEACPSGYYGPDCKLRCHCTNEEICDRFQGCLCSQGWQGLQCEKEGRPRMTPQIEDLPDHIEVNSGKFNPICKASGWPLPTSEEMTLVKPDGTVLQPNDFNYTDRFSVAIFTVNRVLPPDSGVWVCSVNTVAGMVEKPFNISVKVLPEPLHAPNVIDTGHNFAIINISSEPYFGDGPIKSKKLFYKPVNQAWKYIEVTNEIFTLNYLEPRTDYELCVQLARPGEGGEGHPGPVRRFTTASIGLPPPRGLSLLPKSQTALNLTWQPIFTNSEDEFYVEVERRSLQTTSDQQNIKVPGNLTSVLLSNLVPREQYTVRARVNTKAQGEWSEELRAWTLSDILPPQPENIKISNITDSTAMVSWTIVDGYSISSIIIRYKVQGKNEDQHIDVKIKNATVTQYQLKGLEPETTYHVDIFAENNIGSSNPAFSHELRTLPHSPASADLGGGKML
Briefly: SPR. For orientation: Surface plasmon resonance follows binding to a sensor surface in real time, without labels.

Turning to “CHHHRHSF [Vasculotide, 4-armed maleimide-functionalized polyethylene glycol (PEG) backbone to link together four cysteine-capped T7 peptides, that is, CHHHRHSF]”, the endothelial barrier integrity result in assay [1] is “preserve endothelial barrier integrity”. Also, in assay [2], the lung metastases response entry was “did not respond to VT treatment”. Moreover, the “survival, metastatic burden (IVBI) and liver-specific metastases” value in assay [3] was “No significant differences”.

B1: recombinant human Ang1 (rhAng1) (ligand, UniProt Q15389 16-498, looked up)
chain: HIGCSNQRRSPENSGRRYNRIQHGQCAYTFILPEHDGNCRESTTDQYNTNALQRDAPHVEPDFSSQKLQHLEHVMENYTQWLQKLENYIVENMKSEMAQIQQNAVQNHTATMLEIGTSLLSQTAEQTRKLTDVETQVLNQTSRLEIQLLENSLSTYKLEKQLLQQTNEILKIHEKNSLLEHKILEMEGKHKEELDTLKEEKENLQGLVTRQTYIIQELEKQLNRATTNNSVLQKQQLELMDTVHNLVNLCTKEGVLLKGGKREEEKPFRDCADVYQAGFNKSGIYTIYINNMPEPKKVFCNMDVNGGGWTVIQHREDGSLDFQRGWKEYKMGFGNPSGEYWLGNEFIFAITSQRQYMLRIELMDWEGNRAYSQYDRFHIGNEKQNYRLYLKGHTGTAGKQSSLILHGADFSTKDADNDNCMCKCALMLTGGWWFDACGPSNLNGMFYTAGQNHGKLNGIKWHYFKGPSYSLRSTTMMIRPLDF
notes: angiopoietin-1, human, recombinant; also called angiopoietin-1; source: bought: R&D Systems (named for the Boyden chamber experiments)
Molecule B1 displayed a Kd in assay [4] of 0.237 nM.
